In PMC11239005, “Preclinical studies of RA475, a guanidine-substituted spirocyclic candidate RPN13/ADRM1 inhibitor for treatment of ovarian cancer” (PLOS ONE, 2024):

What was measured:
[1] = Stability in human liver microsomes; assay type: in vitro ADME; details: with or without NADPH, over 1 h
Method: (§1) Human and mouse liver microsomes and NADPH regenerating system solutions were purchased from Corning Life Sciences (Tewsbury, MA). Human and mouse K2EDTA-treated plasma was purchased from BioIVT (Westbury, NY). Metabolic studies in liver microsomes (0.125 mg/mL) were conducted in 1x PBS (pH 7.4), NADPH-generating system, and 10 μM RA475 in a final volume of 250 μL. An incubation mixture with or without NADPH-generating system, as well as a neat solution prepared without microsomes and NADPH-generating system was used. RA475 was added at the same concentration level into human and mouse EDTA plasma. All reactions were initiated with the addition of RA475. Incubations were performed in glass tubes maintained at 37°C in a shaker bath. At 0, 30, and 60 min, 10 μL samples were withdrawn from the reaction mixture, and 0.5 mL of acetonitrile containing internal standard was added to each. Samples were vortex-mixed and subjected to centrifugation for 5 min at 1430 x g. A 10 μL aliquot of the supernatant was injected onto the LC-MS/MS instrument for qualitative analysis using a temperature-controlled autosampling device operating at 5°C (See Pharmacokinetic section).

[2] = Stability in mouse liver microsomes; assay type: in vitro ADME; details: with or without NADPH, over 1 h
Method: as §1

[3] = Mouse plasma protein binding, equilibrium dialysis; assay type: in vitro ADME; details: pH 7.4, dialysis 5 h
Method: The assay was performed in a multiple-use 96-well dialysis unit (HTD96b dialyzer). Each individual well unit consisted of 2 chambers separated by a vertically aligned dialysis membrane of predetermined pore size (MWCO 12–14 kDa). 120 μL of non-diluted plasma spiked with the compound (1 μM, final DMSO concentration 1%) was added to one chamber, and the same volume of PBS buffer pH 7.4 to the other chamber. The HTD96b dialyzer was covered with adhesive sealing film and incubated 5 h at 37°C while shaking at 100 rpm. For sample preparation, an aliquot of the contents of each chamber was mixed with the same volume of the blank opposite matrix. In order to define non-specific loss of the compound during this assay, a standard solution was created by mixing an aliquot of spiked plasma with blank buffer without dialysis. Two aliquots of the standard solution were incubated at 37°C, shaking at 100 rpm for 5 h (recovery samples). The other two aliquots were immediately diluted with acetonitrile and stored at 4°C until analysis (stability samples). All samples were diluted 5-fold with internal standard diluted in 100% methanol with subsequent plasma proteins sedimentation by centrifuging at 6000 rpm for 5 minutes. Supernatants were analyzed using LC-MS/MS. The percentage of plasma protein bound compound, recovery and stability were calculated using following equations. […]

4UbFL in 4T1 cells = experiment: 4UbFL reporter assay, 4T1; assay type: cell-based; details: 4T1 stably expressing 4UbFL, 4 h
Method: Sub-confluent cultures of cells were transfected with 4UbFL plasmid using TransIT 2020 reagent (Mirus Bio). Cells were seeded at 10,000 cells/well in 96-well plates 48 h post transfection, and incubated with compounds or vehicle (DMSO) at the doses and for the times indicated. Luciferase activity in cell lysate was determined with a luciferase assay kit (Promega) according to the manufacturer’s instructions. Bioluminescence was measured using a Glomax Multidetection system (Promega).
Fig 3 Impact of RA475 on proteasome function. […] Actin was used as loading control. […] After a 4 h incubation, the cells were lysed and the luciferase activity in each cell lysate was determined with a luciferase assay kit (Promega) according to the manufacturer’s instructions. Bioluminescence was measured by using a luminometer (Glomax Multidetection system, Promega) E) A patch was shaved of hair on one leg of CD-1 mice, and 10 μg 4UbFL plasmid in 20 μL of PBS was injected into the quadriceps femoralis muscle followed immediately by injection of the 2 Needle Array to 5 mm depth encompassing the injection site and square wave electroporation (ElectroSquarePorator 833, BTX-2 Needle array 5mm gap, Harvard apparatus) delivered as eight pulses at 106V for 20 ms with 200 ms intervals. […] Equally sized areas were analyzed using Living Image 2.20 software. […]

With Cl.Cl.N#Cc1ccc(/C=C2/C(=O)/C(=C/c3ccc(C#N)cc3)C23CCN(C(=N)N)CC3)cc1 [RA475, 1,3-bis((E)-4-cyanobenzylidene)-2-oxo-7-azaspiro[3.5]nonane-7-carboximidamide dihydrochloride] the “degradation in liver microsomes” value [1] was less than 10%, the “degradation in liver microsomes” value [2] was less than 10% and the fraction unbound at 5 h, 1 μM [3] was less than 0.01. For the same molecule, the 4UbFL bioluminescence signal (4UbFL in 4T1 cells) was “dose dependent increases in bioluminescence signal”.
